Results published in ChEMBL document CHEMBL2346560, “Structure and function of a potent lipopolysaccharide-binding antimicrobial and anti-inflammatory peptide” (J Med Chem, 2013).
Bridge positions count the residues as written; N and C are the ends. Peptide text beside a SMILES is read from it.

System: Escherichia coli
Test: Bactericidal activity against Escherichia coli ATCC 25922 at 10 times MIC after 20 mins by colony counting assay (reference value: 79.3 CFU)
Format: functional

CC[C@H](C)[C@H](NC(=O)[C@H](Cc1cnc[nH]1)NC(=O)[C@H](CO)NC(=O)[C@@H](NC(=O)[C@@H](NC(=O)[C@@H](NC(=O)[C@@H](NC(=O)[C@H](CCCNC(=N)N)NC(=O)[C@H](CC(C)C)NC(=O)[C@H](CCCCN)NC(=O)[C@H](CCC(=O)O)NC(=O)[C@H](CCCCN)NC(=O)[C@H](CC(C)C)NC(=O)[C@H](CCCCN)NC(=O)[C@@H]1CSSC[C@H](NC(=O)[C@H](CCCCN)NC(=O)[C@@H](N)CCCNC(=N)N)C(=O)N[C@@H](CC(N)=O)C(=O)N[C@@H](Cc2ccccc2)C(=O)N[C@@H](CC(C)C)C(=O)N1)[C@@H](C)O)C(C)C)[C@@H](C)CC)[C@@H](C)O)C(=O)N[C@@H](CC(=O)O)C(=O)N[C@@H](CCCCN)C(=O)N[C@H](C(=O)N[C@@H](CC(C)C)C(=O)N[C@@H](CCCNC(=N)N)C(=O)N1CCC[C@H]1C(=O)N[C@@H](CCC(N)=O)C(=O)NCC(=O)O)C(C)C (H-RKCNFLCKLKEKLRTVITSHIDKVLRPQG-OH; disulfide 3-7) was tested, and the CFU was 0.
